Experiments:
[1] = target: T1, Androgen receptor (Rattus norvegicus, UniProt P15207); assay type: functional
T1 sequence (P15207 whole entry): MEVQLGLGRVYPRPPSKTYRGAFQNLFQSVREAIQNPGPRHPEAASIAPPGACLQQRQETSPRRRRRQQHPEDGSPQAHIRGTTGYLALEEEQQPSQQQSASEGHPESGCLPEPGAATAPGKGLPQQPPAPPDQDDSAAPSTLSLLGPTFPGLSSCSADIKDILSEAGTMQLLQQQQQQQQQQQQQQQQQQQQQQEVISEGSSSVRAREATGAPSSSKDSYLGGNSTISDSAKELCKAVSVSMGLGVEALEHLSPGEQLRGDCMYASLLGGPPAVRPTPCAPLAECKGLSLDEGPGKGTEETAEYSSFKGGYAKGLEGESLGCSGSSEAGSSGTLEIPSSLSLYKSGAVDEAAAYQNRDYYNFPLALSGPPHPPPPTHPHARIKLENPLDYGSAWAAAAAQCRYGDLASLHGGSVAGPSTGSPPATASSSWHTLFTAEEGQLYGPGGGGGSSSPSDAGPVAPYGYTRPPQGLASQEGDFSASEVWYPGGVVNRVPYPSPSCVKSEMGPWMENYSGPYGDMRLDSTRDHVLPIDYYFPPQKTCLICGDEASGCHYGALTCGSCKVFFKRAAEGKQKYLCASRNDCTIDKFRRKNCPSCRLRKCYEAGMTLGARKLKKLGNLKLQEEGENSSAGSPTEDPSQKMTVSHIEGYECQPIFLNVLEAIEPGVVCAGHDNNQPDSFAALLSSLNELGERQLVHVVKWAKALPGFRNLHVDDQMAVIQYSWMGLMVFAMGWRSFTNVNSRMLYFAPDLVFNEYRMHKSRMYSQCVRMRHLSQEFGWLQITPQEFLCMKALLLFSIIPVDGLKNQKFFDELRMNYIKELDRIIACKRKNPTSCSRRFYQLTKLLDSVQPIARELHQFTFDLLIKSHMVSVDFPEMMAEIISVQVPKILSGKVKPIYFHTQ

[2] = target: Sodium channel protein type 5 subunit alpha (Homo sapiens, UniProt Q14524); assay type: functional, cell-based
[3] = target: T2, Endothelin receptor type B (Homo sapiens, UniProt P24530)
T2 sequence (P24530 whole entry): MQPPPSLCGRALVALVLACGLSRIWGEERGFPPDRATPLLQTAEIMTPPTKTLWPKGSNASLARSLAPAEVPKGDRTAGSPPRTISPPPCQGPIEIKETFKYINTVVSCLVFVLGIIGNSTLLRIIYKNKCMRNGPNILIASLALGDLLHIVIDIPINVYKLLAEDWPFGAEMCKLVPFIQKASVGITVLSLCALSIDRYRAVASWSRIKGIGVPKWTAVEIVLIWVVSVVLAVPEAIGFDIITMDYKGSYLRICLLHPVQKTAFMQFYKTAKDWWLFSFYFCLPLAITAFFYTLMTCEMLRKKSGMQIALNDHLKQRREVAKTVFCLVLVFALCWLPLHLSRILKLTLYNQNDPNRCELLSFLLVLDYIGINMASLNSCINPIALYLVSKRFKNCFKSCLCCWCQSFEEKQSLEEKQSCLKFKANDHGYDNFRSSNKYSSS

[4] = target: D(1A) dopamine receptor (Homo sapiens, UniProt P21728)
[5] = target: T3, D(4) dopamine receptor (Homo sapiens, UniProt P21917)
T3 sequence (P21917 whole entry): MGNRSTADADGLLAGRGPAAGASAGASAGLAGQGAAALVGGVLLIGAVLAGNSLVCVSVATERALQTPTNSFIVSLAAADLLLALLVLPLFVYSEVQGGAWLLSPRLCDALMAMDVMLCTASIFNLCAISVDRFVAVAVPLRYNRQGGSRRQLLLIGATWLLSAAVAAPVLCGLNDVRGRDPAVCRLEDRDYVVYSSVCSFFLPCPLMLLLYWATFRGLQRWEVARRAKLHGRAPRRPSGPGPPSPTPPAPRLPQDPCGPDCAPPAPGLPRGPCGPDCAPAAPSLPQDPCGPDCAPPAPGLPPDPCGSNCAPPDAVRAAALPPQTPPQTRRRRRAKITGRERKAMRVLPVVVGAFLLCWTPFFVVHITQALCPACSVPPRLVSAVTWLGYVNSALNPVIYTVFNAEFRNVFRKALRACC

[6] = target: T4, Progesterone receptor (Homo sapiens, UniProt P06401)
T4 sequence (P06401 whole entry): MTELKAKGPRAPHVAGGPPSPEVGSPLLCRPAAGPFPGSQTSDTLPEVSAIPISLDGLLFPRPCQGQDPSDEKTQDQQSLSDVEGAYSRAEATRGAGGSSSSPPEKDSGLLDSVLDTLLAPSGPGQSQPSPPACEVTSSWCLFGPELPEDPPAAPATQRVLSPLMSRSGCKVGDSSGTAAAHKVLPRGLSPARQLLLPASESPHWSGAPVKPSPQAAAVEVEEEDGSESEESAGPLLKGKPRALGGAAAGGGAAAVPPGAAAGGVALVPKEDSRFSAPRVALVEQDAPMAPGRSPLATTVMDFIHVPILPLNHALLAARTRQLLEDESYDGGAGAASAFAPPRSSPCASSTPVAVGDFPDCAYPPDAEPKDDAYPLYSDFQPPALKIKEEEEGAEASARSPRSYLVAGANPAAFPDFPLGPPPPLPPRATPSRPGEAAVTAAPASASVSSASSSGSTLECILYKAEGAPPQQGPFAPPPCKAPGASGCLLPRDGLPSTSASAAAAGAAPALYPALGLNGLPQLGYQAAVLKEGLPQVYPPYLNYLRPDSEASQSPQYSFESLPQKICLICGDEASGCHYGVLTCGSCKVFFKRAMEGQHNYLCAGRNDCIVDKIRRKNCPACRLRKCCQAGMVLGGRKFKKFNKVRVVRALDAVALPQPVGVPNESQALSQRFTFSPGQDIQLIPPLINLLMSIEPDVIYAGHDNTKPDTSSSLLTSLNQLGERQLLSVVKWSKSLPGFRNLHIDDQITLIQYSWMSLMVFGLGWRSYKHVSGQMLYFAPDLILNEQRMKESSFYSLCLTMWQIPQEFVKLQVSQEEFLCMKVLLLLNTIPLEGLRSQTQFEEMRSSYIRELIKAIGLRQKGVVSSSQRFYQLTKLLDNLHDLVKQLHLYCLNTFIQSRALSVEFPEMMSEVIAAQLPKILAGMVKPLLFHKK
Note: assay procedure not described here.

Sequence of Sodium channel protein type 5 subunit alpha (Q14524 whole entry): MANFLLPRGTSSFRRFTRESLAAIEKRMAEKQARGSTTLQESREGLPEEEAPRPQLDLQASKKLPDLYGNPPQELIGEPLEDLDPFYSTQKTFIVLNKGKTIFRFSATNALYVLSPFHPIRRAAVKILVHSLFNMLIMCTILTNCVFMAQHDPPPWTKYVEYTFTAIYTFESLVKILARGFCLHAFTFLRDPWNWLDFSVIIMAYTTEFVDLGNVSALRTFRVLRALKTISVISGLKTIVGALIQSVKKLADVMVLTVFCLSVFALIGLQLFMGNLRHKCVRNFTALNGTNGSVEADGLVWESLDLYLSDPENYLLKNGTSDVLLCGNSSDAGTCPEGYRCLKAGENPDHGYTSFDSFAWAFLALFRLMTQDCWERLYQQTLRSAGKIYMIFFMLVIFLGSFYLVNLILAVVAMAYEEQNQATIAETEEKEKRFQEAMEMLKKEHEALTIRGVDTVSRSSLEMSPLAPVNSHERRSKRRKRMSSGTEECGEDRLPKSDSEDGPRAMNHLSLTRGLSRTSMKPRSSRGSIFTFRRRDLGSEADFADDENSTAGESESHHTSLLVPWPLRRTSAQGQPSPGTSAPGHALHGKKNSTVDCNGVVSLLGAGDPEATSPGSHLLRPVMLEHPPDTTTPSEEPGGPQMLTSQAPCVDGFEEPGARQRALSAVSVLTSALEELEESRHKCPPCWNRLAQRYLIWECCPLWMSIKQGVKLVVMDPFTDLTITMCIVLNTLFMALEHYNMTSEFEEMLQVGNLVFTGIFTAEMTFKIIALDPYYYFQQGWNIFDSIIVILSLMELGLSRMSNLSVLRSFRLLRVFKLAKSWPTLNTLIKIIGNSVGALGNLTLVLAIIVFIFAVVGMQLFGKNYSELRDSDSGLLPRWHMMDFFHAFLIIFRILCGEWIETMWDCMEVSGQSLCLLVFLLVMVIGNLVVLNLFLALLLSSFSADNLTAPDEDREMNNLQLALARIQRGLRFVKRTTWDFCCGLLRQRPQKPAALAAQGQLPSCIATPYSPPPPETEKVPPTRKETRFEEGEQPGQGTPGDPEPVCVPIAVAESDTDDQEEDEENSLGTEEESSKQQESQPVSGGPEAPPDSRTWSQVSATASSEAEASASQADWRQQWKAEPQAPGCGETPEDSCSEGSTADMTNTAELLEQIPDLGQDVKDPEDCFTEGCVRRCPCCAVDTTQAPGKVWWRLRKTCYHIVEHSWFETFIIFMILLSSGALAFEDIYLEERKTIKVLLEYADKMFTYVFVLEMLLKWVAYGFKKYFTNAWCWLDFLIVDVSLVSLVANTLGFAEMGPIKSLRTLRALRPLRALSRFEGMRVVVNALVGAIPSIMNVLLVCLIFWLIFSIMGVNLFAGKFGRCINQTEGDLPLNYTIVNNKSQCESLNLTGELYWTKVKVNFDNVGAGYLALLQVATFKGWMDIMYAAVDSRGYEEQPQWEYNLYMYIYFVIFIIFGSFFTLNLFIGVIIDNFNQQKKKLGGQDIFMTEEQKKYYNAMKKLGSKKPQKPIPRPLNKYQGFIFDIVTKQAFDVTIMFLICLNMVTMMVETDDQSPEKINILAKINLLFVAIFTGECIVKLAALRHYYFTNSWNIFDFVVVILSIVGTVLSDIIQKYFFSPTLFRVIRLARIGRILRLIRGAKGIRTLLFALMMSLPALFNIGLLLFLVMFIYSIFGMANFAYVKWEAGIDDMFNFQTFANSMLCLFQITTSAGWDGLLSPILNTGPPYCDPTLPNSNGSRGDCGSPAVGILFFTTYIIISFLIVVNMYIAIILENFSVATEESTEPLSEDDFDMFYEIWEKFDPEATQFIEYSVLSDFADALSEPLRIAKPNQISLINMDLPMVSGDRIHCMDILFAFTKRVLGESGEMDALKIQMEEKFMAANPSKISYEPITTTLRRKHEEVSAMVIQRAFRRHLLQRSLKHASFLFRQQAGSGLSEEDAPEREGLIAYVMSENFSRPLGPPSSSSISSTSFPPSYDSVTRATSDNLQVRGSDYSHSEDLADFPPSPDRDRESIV
Sequence of D(1A) dopamine receptor (P21728 whole entry): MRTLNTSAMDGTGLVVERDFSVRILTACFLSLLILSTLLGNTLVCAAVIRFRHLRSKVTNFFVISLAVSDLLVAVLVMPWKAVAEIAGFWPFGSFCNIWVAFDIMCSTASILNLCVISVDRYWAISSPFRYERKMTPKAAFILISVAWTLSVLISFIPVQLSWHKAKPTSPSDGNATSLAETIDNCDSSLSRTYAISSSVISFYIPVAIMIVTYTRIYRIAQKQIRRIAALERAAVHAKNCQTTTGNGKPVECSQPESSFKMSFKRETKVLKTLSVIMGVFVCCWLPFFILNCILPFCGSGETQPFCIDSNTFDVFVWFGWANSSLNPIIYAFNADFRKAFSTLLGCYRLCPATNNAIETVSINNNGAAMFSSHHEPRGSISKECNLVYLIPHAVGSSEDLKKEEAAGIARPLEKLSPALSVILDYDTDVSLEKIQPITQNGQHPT

Compound	AC50 [1]	AC50 [3]	AC50 [4]	AC50 [5]	AC50 [6]	also measured
COc1ccccc1OCCNCC(O)c1ccc(C)c(S(N)(=O)=O)c1 (configuration not stated) [AMOSULALOL]	> 30 µM	–	–	–	–	–
CC(Oc1c(Cl)cccc1Cl)C1=NCCN1 (configuration not stated) [LOFEXIDINE]	> 30 µM	–	–	–	–	–
COc1ccc2c3c1O[C@H]1[C@@H](O)C=C[C@H]4[C@@H](C2)N(C)CC[C@@]341 [CODEINE]	–	> 30 µM	> 10 µM	> 10 µM	> 30 µM	AC50 [2]: > 30 µM
Cc1ccc(-n2nccn2)c(C(=O)N2CCN(c3nc4cc(Cl)ccc4o3)CC[C@H]2C)c1 [SUVOREXANT]	> 30 µM	–	–	–	–	–
CC(C(=O)O)c1ccc(N2Cc3ccccc3C2=O)cc1 (configuration not stated) [INDOPROFEN]	–	–	> 30 µM	–	–	–
CCC(C(=O)O)c1ccc(N2Cc3ccccc3C2=O)cc1 (configuration not stated) [INDOBUFEN]	> 30 µM	–	–	–	–	–
Cn1c(=O)c2c(ncn2CC2OCCO2)n(C)c1=O [DOXOFYLLINE]	> 30 µM	–	–	–	–	–
N#Cc1ccc([C@H]2CCc3cncn32)c(F)c1 [OSILODROSTAT]	–	> 10 µM	> 10 µM	> 10 µM	–	–
COC(=O)C1=C(C)NC(C)=C(C(=O)OC(C)(C)CN(C)CCC(c2ccccc2)c2ccccc2)C1c1cccc([N+](=O)[O-])c1 (configuration not stated) [LERCANIDIPINE]	–	–	–	–	–	AC50 [2]: > 50 µM
COC(=O)C1=C(C)NC(C)=C(C(=O)OC2CCCN(Cc3ccccc3)C2)C1c1cccc([N+](=O)[O-])c1 (configuration not stated) [BENIDIPINE]	–	–	–	–	–	AC50 [2]: > 50 µM
CC(=O)O[C@H]1CC[C@@]2(C)C(=CC[C@@H]3[C@@H]2CC[C@]2(C)C(c4cccnc4)=CC[C@@H]32)C1 [ABIRATERONE ACETATE]	> 30 µM	–	–	–	3.1 µM	AC50 [2]: > 30 µM
Clc1ccc(CCCOCCCN2CCCCC2)cc1 [PITOLISANT]	> 30 µM	–	–	–	–	AC50 [2]: 32 µM
CC[C@@H]1C(=O)OC[C@@H]1Cc1cncn1C [PILOCARPINE]	–	–	–	–	> 30 µM	–
CC(C)OC(=O)CCC/C=C\C[C@@H]1[C@@H](CC[C@@H](O)CCc2ccccc2)[C@H](O)C[C@@H]1O [LATANOPROST]	> 30 µM	–	–	–	–	–
CN1CCN(CC/C=C2/c3ccccc3Sc3ccc(S(=O)(=O)N(C)C)cc32)CC1 [THIOTHIXENE]	–	> 30 µM	0.0774 µM	0.78 µM	> 30 µM	–
CCc1c(Cl)c(O)c(Cl)c(O)c1C(=O)O[C@H]1[C@H](O)[C@H](OC)[C@H](OC/C2=C\C=C\C[C@H](O)/C(C)=C/[C@H](CC)[C@@H](O[C@@H]3OC(C)(C)[C@@H](OC(=O)C(C)C)[C@H](O)[C@@H]3O)/C(C)=C/C(C)=C/C[C@@H]([C@@H](C)O)OC2=O)O[C@@H]1C [FIDAXOMICIN]	–	> 30 µM	> 10 µM	> 10 µM	11.3 µM	–
CCCCc1ncc(/C=C(\Cc2cccs2)C(=O)O)n1Cc1ccc(C(=O)O)cc1 [EPROSARTAN]	–	> 30 µM	> 10 µM	> 10 µM	> 30 µM	–
CCCc1nc(C(C)(C)O)c(C(=O)OCc2oc(=O)oc2C)n1Cc1ccc(-c2ccccc2-c2nnn[nH]2)cc1 [OLMESARTAN MEDOXOMIL]	–	> 50 µM	> 10 µM	> 10 µM	> 30 µM	–
CC(C)=CCC/C(C)=C/C=C/C(C)=C/C=C/C(C)=C/C=C/C=C(C)/C=C/C=C(C)/C=C/C=C(\C)CCC=C(C)C [LYCOPENE]	24 µM	–	–	–	–	–
CN1C(=O)C(O)N=C(c2ccccc2Cl)c2cc(Cl)ccc21 (configuration not stated) [LORMETAZEPAM]	> 30 µM	–	–	–	–	–
C/C(O)=C(\C#N)C(=O)Nc1ccc(C(F)(F)F)cc1 [TERIFLUNOMIDE]	–	–	–	–	–	AC50 [2]: > 50 µM
COc1ccc2c3c1O[C@H]1C(=O)CC[C@@]4(O)[C@@H](C2)N(C)CC[C@]314 [OXYCODONE]	> 30 µM	–	–	–	–	–
CC(CC(c1ccccc1)c1ccccc1)NC(C)(C)C (configuration not stated) [TERODILINE]	–	–	–	–	–	AC50 [2]: 8.65 µM
Cc1cc(O)c(C(=O)N[C@@H](C(=O)N[C@@H]2C(=O)N3C(C(=O)O)=C(CSc4nnnn4C)CS[C@H]23)c2ccc(O)cc2)cn1 [CEFPIRAMIDE]	> 30 µM	–	–	–	–	–
CC(C)Cn1cnc2c(N)nc3ccccc3c21 [IMIQUIMOD]	–	–	–	–	> 30 µM	–
CCCN(CCC)C(=O)C(CCC(=O)O)NC(=O)c1ccccc1 (configuration not stated) [PROGLUMIDE]	–	> 30 µM	> 10 µM	> 10 µM	> 30 µM	–
CC(C)(C)c1cc(C(C)(C)C)c(NC(=O)c2c[nH]c3ccccc3c2=O)cc1O [IVACAFTOR]	–	–	> 10 µM	–	> 30 µM	–
CNS(=O)(=O)Cc1ccc2[nH]cc(CCN(C)C)c2c1	–	> 30 µM	> 10 µM	> 10 µM	> 30 µM	–
CN1C(=O)C(O)N=C(c2ccccc2)c2cc(Cl)ccc21 (configuration not stated) [TEMAZEPAM]	–	> 30 µM	> 10 µM	> 10 µM	> 30 µM	–
CCN(CC)C(=O)N[C@H]1C[C@@H]2c3cccc4[nH]cc(c34)C[C@H]2N(C)C1 [TERGURIDE]	> 30 µM	–	0.41 µM	–	–	–

Source: ChEMBL document CHEMBL5291721, “A preclinical secondary pharmacology resource illuminates target-adverse drug reaction associations of marketed drugs” (Nat Commun, 2023)
